Results from US8952024B2, “Herbicidal pyrimidone derivatives” (E I du Pont de Nemours and Company, priority 2009, dated 2015).
Like-named read-outs stand apart in the source and are kept apart here.

Columns and labels:
Format in all cases: in vivo
[1] = test system: green foxtail (Setaria viridis); test: Test B pre-/postemergence plant response; details: Setaria viridis, pre-emergence, Preemergence, read-out: Plant response rating, Foxtail, Green
How it was run: (§1)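 Pre-em in loam/sand; post-em at 1–4 leaf (2–18 cm) in peat mix. Solvent + surfactant formulation. Greenhouse 13–15 d; visual % control vs untreated, 0–100.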

[2] = test system: johnsongrass (Sorghum halepense); test: Test B pre-/postemergence plant response; details: for pest or weed control at 31 g/ha: 31 g ai/ha; for pest or weed control at 125 g/ha: 125 g ai/ha
How it was run: as §1

[3] = test system: morningglory (Ipomoea coccinea); test: Test B pre-/postemergence plant response
How it was run: as §1

[4] = test system: pigweed (Amaranthus retroflexus); test: Test B pre-/postemergence plant response; details: for pest or weed control at 31 g/ha: 31 g ai/ha; for pest or weed control at 125 g/ha: 125 g ai/ha
How it was run: as §1

[5] = test system: ragweed (common ragweed, Ambrosia elatior); test: Test B pre-/postemergence plant response; details: for pest or weed control at 125 g/ha: 125 g ai/ha
How it was run: as §1

soybean (Glycine max) = test: Test B pre-/postemergence plant response; details: for plant injury at 125 g/ha: 125 g ai/ha
How it was run: as §1

[6] = test system: velvetleaf (Abutilon theophrasti); test: Test B pre-/postemergence plant response; details: for pest or weed control at 125 g/ha: 125 g ai/ha
How it was run: as §1

[7] = test system: wheat (Triticum aestivum); test: Test B pre-/postemergence plant response; details: for plant injury at 125 g/ha: 125 g ai/ha
How it was run: as §1

[8] = test system: canarygrass (Phalaris minor); test: Test B postemergence plant response
How it was run: (§2)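 Plants grown in peat/vermiculite medium were sprayed postemergence at 2–18 cm height (1- to 4-leaf stage). After 13–15 days in the greenhouse, response was rated visually against untreated controls on a 0–100 scale (0 no effect, 100 complete control).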

[9] = test system: chickweed (Stellaria media); test: Test B postemergence plant response
How it was run: as §2

[10] = test system: winter barley (Hordeum vulgare); test: Test B postemergence plant response
How it was run: as §2

[11] = 62 g ai/ha, postemergence, 0 is no effect, 100 is complete control, 13 to 15 days
[12] = Preemergence, 250 g ai/ha, 0 to 100 scale

## O=C1CCCC(O)=C1C(=O)c1cnc(-c2cccnc2)n(-c2ccccc2)c1=O [Compound 113, 5-[(2-hydroxy-6-oxo-1-cyclohexen-1-yl)carbonyl]-3-phenyl-2-(3-pyridinyl)-4(3H)-pyrimidone]
[1]; 31 g ai/ha, scale 0 to 100 (0 no effect, 100 complete control)
  pest or weed control at 31 g/ha: 10%
[1]; 62 g ai/ha, scale 0 to 100, 0 no effect, 100 complete control
  pest or weed control at 62 g/ha: 40%
[1]; 125 g ai/ha, scale 0 to 100, 0 no effect, 100 complete control
  pest or weed control at 125 g/ha: 60%
[2]; [11]
  Johnsongrass plant response rating (0 to 100 scale): 85
[2]; [12]
  Johnsongrass plant response rating: 70
[2]; Sorghum halepense, post-emergence, postemergence, scale 0 to 100, 0 is no effect, 100 is complete control, read-out: Plant response rating, Johnsongrass
  pest or weed control at 31 g/ha: 65%
[2]; Sorghum halepense, post-emergence, Postemergence, scale 0 to 100 (0 no effect, 100 complete control), read-out: Plant response rating, Johnsongrass
  pest or weed control at 125 g/ha: 90%
[2]; Sorghum halepense, post-emergence, Postemergence, 250 g ai/ha, scale 0 to 100 (0 no effect, 100 complete control), read-out: Plant response rating, Johnsongrass
  pest or weed control at 250 g/ha: 95%
[2]; Sorghum halepense, pre-emergence, Preemergence, scale 0 to 100 (0 no effect, 100 complete control), read-out: Plant response rating, Johnsongrass
  pest or weed control at 31 g/ha: 0%
[2]; Sorghum halepense, pre-emergence, Preemergence, 62 g ai/ha, scale 0 to 100, 0 no effect, 100 complete control, read-out: Plant response rating, Johnsongrass
  pest or weed control at 62 g/ha: 5%
[2]; Sorghum halepense, pre-emergence, Preemergence, scale 0 to 100, 0 no effect, 100 complete control, read-out: Plant response rating, Johnsongrass
  pest or weed control at 125 g/ha: 60%
[3]; [11]
  Morningglory plant response rating (0 to 100 scale): 100
[3]; Ipomoea, post-emergence, 31 g ai/ha, postemergence, scale 0 to 100, 0 is no effect, 100 is complete control, read-out: Plant response rating, Morningglory
  pest or weed control at 31 g/ha: 98%
[3]; Ipomoea, post-emergence, Postemergence, 125 g ai/ha, scale 0 to 100 (0 no effect, 100 complete control), read-out: Plant response rating, Morningglory
  pest or weed control at 125 g/ha: 100%
[3]; Ipomoea, post-emergence, Postemergence, 250 g ai/ha, scale 0 to 100 (0 no effect, 100 complete control), read-out: Plant response rating, Morningglory
  pest or weed control at 250 g/ha: 100%
[4]; [11]
  Pigweed plant response rating (0 to 100 scale): 100
[4]; Amaranthus retroflexus, post-emergence, postemergence, scale 0 to 100, 0 is no effect, 100 is complete control, read-out: Plant response rating, Pigweed
  pest or weed control at 31 g/ha: 95%
[4]; Amaranthus retroflexus, post-emergence, Postemergence, scale 0 to 100 (0 no effect, 100 complete control), read-out: Plant response rating, Pigweed
  pest or weed control at 125 g/ha: 100%
[4]; Amaranthus retroflexus, post-emergence, Postemergence, 250 g ai/ha, scale 0 to 100 (0 no effect, 100 complete control), read-out: Plant response rating, Pigweed
  pest or weed control at 250 g/ha: 100%
[4]; Amaranthus retroflexus, pre-emergence, Preemergence, scale 0 to 100 (0 no effect, 100 complete control), read-out: Plant response rating, Pigweed
  pest or weed control at 31 g/ha: 98%
[4]; Amaranthus retroflexus, pre-emergence, Preemergence, 62 g ai/ha, scale 0 to 100 (0 no effect, 100 complete control), read-out: Plant response rating, Pigweed
  pest or weed control at 62 g/ha: 98%
[4]; Amaranthus retroflexus, pre-emergence, Preemergence, scale 0 to 100, 0 no effect, 100 complete control, read-out: Plant response rating, Pigweed
  pest or weed control at 125 g/ha: 100%
[4]; [12]
  Pigweed plant response rating: 100
[5]; [11]
  Ragweed plant response rating (0 to 100 scale): 95
[5]; Ambrosia artemisiifolia, post-emergence, 360 h, Postemergence, scale 0 to 100 (0 no effect, 100 complete control), read-out: Plant response rating, Ragweed
  pest or weed control at 125 g/ha: 98%
[5]; Ambrosia artemisiifolia, post-emergence, 360 h, Postemergence, 250 g ai/ha, scale 0 to 100 (0 no effect, 100 complete control), read-out: Plant response rating, Ragweed
  pest or weed control at 250 g/ha: 98%
[5]; Ambrosia artemisiifolia, pre-emergence, 360 h, Preemergence, 31 g ai/ha, scale 0 to 100 (0 no effect, 100 complete control), read-out: Plant response rating, Ragweed
  pest or weed control at 31 g/ha: 55%
[5]; Ambrosia artemisiifolia, pre-emergence, 360 h, Preemergence, 62 g ai/ha, scale 0 to 100 (0 no effect, 100 complete control), read-out: Plant response rating, Ragweed
  pest or weed control at 62 g/ha: 90%
[5]; Ambrosia artemisiifolia, pre-emergence, 360 h, Preemergence, scale 0 to 100, 0 no effect, 100 complete control, read-out: Plant response rating, Ragweed
  pest or weed control at 125 g/ha: 95%
[5]; [12]
  Ragweed plant response rating: 98
Soybean (Glycine max); [11]
  Soybean plant response rating (0 to 100 scale): 98
Soybean (Glycine max); Glycine max, post-emergence, Postemergence, scale 0 to 100 (0 no effect, 100 complete control), read-out: Plant response rating, Soybean
  plant injury at 125 g/ha: 98%
Soybean (Glycine max); Glycine max, post-emergence, Postemergence, 250 g ai/ha, scale 0 to 100 (0 no effect, 100 complete control), read-out: Plant response rating, Soybean
  plant injury at 250 g/ha: 98%
Soybean (Glycine max); Glycine max, pre-emergence, Preemergence, 31 g ai/ha, scale 0 to 100 (0 no effect, 100 complete control), read-out: Plant response rating, Soybean
  plant injury at 31 g/ha: 0%
Soybean (Glycine max); Glycine max, pre-emergence, Preemergence, 62 g ai/ha, scale 0 to 100, 0 no effect, 100 complete control, read-out: Plant response rating, Soybean
  plant injury at 62 g/ha: 65%
Soybean (Glycine max); Glycine max, pre-emergence, Preemergence, scale 0 to 100, 0 no effect, 100 complete control, read-out: Plant response rating, Soybean
  plant injury at 125 g/ha: 85%
Soybean (Glycine max); [12]
  Soybean plant response rating: 90
[6]; [11]
  Velvetleaf plant response rating (0 to 100 scale): 95
[6]; Abutilon theophrasti, post-emergence, 360 h, Postemergence, scale 0 to 100 (0 no effect, 100 complete control), read-out: Plant response rating, Velvetleaf
  pest or weed control at 125 g/ha: 98%
[6]; Abutilon theophrasti, post-emergence, 360 h, Postemergence, 250 g ai/ha, scale 0 to 100 (0 no effect, 100 complete control), read-out: Plant response rating, Velvetleaf
  pest or weed control at 250 g/ha: 98%
[6]; Abutilon theophrasti, pre-emergence, 360 h, Preemergence, 31 g ai/ha, scale 0 to 100 (0 no effect, 100 complete control), read-out: Plant response rating, Velvetleaf
  pest or weed control at 31 g/ha: 80%
[6]; Abutilon theophrasti, pre-emergence, 360 h, Preemergence, 62 g ai/ha, scale 0 to 100 (0 no effect, 100 complete control), read-out: Plant response rating, Velvetleaf
  pest or weed control at 62 g/ha: 100%
[6]; Abutilon theophrasti, pre-emergence, 360 h, Preemergence, scale 0 to 100, 0 no effect, 100 complete control, read-out: Plant response rating, Velvetleaf
  pest or weed control at 125 g/ha: 100%
[6]; [12]
  Velvetleaf plant response rating: 100
[7]; [11]
  Wheat plant response rating (0 to 100 scale): 15
[7]; [12]
  Wheat plant response rating: 10
[7]; Triticum aestivum, post-emergence, Postemergence, scale 0 to 100 (0 no effect, 100 complete control), read-out: Plant response rating, Wheat
  plant injury at 125 g/ha: 40%
[7]; Triticum aestivum, pre-emergence, Preemergence, 31 g ai/ha, scale 0 to 100 (0 no effect, 100 complete control), read-out: Plant response rating, Wheat
  plant injury at 31 g/ha: 0%
[7]; Triticum aestivum, pre-emergence, Preemergence, 62 g ai/ha, scale 0 to 100 (0 no effect, 100 complete control), read-out: Plant response rating, Wheat
  plant injury at 62 g/ha: 0%
[7]; Triticum aestivum, pre-emergence, Preemergence, scale 0 to 100, 0 no effect, 100 complete control, read-out: Plant response rating, Wheat
  plant injury at 125 g/ha: 10%
[8]; [11]
  Canarygrass plant response rating (0 to 100 scale): 90
[8]; Phalaris minor, post-emergence, 360 h, 31 g ai/ha, postemergence, scale 0 to 100, 0 is no effect, 100 is complete control, read-out: Plant response rating, Canarygrass
  pest or weed control at 31 g/ha: 65%
[8]; Phalaris minor, post-emergence, 360 h, Postemergence, 250 g ai/ha, scale 0 to 100 (0 no effect, 100 complete control), read-out: Plant response rating, Canarygrass
  pest or weed control at 250 g/ha: 90%
[9]; [11]
  Chickweed plant response rating (0 to 100 scale): 98
[9]; Stellaria media, post-emergence, 360 h, 31 g ai/ha, postemergence, scale 0 to 100, 0 is no effect, 100 is complete control, read-out: Plant response rating, Chickweed
  pest or weed control at 31 g/ha: 98%
[9]; Stellaria media, post-emergence, 360 h, Postemergence, 125 g ai/ha, scale 0 to 100 (0 no effect, 100 complete control), read-out: Plant response rating, Chickweed
  pest or weed control at 125 g/ha: 100%
[9]; Stellaria media, post-emergence, 360 h, Postemergence, 250 g ai/ha, scale 0 to 100 (0 no effect, 100 complete control), read-out: Plant response rating, Chickweed
  pest or weed control at 250 g/ha: 100%
[10]; [11]
  Barley plant response rating (0 to 100 scale): 5
[10]; Hordeum vulgare, post-emergence, 31 g ai/ha, postemergence, scale 0 to 100, 0 is no effect, 100 is complete control, read-out: Plant response rating, Barley
  plant injury at 31 g/ha: 0%
[10]; Hordeum vulgare, post-emergence, Postemergence, 125 g ai/ha, scale 0 to 100 (0 no effect, 100 complete control), read-out: Plant response rating, Barley
  plant injury at 125 g/ha: 5%
[10]; Hordeum vulgare, post-emergence, Postemergence, 250 g ai/ha, scale 0 to 100 (0 no effect, 100 complete control), read-out: Plant response rating, Barley
  plant injury at 250 g/ha: 20%
